According to PubChem BioAssay AID248 (DTP/NCI, 2004):
“And” between values parts separate entries of the source, which are not always exact repeats. Identical values can stand only once. Toxic doses and inconclusive results are not listed.

Test system: L1210 leukemia ip in BDF1 mice, survival T/C
Assay: NCI In Vivo Anticancer Drug Screen. Data for tumor model L1210 Leukemia (intraperitoneal) in B6D2F1 (BDF1) mice
Settings: endpoint: mean survival time, higher = longer survival
How it was run: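 Mice bearing the transplanted tumor received compound or vehicle. Survival of the treated group was divided by that of the vehicle-treated control group to give the ratio.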

[1] = dose: 100.0 mg/kg/injection, schedule: Q04DX003 (ip), vehicle: Klucel (hydroxypropylcellulose) (HPC)
[2] = dose: 200.0 mg/kg/injection, schedule: Q04DX003 (ip), vehicle: Klucel (hydroxypropylcellulose) (HPC)
[3] = dose: 400.0 mg/kg/injection, schedule: Q04DX003 (ip), vehicle: Klucel (hydroxypropylcellulose) (HPC)
[4] = dose: 100.0 mg/kg/injection, schedule: Q01DX009 (ip), vehicle: saline with Tween-80
[5] = dose: 200.0 mg/kg/injection, schedule: Q01DX009 (ip), vehicle: saline with Tween-80
[6] = dose: 400.0 mg/kg/injection, schedule: Q01DX009 (ip), vehicle: saline with Tween-80
[7] = dose: 75.0 mg/kg/injection, schedule: Q01DX001 (ip), vehicle: saline
[8] = dose: 100.0 mg/kg/injection, schedule: Q04DX003 (ip), vehicle: saline with Tween-80
[9] = dose: 200.0 mg/kg/injection, schedule: Q04DX003 (ip), vehicle: saline with Tween-80
[10] = dose: 400.0 mg/kg/injection, schedule: Q04DX003 (ip), vehicle: saline with Tween-80
[11] = dose: 100.0 mg/kg/injection, schedule: Q01DX001 (ip), vehicle: carboxymethylcellulose (CMC)
[12] = dose: 200.0 mg/kg/injection, schedule: Q01DX001 (ip), vehicle: carboxymethylcellulose (CMC)

Compound: Nc1ccc(/C=C/c2ccc(N)cc2)cc1
- T/C [1]: 97 % of control
- T/C [2]: 94 % of control
- T/C [3]: 94 % of control

Compound: COC(=O)C1OC(n2cnc3c(N)ncnc32)C2OC(C)(C)OC12 (stereo not given)
- T/C (dose: 100.0 mg/kg/injection, schedule: Q01DX005 (ip), vehicle: saline): 102 % of control
- T/C (dose: 200.0 mg/kg/injection, schedule: Q01DX005 (ip), vehicle: saline): 104 % of control

Compound: CCc1ccccc1NC(=S)Nc1ccccc1
- T/C (dose: 100.0 mg/kg/injection, schedule: Q04DX002 (ip), vehicle: Klucel (hydroxypropylcellulose) (HPC)): 105 % of control
- T/C (dose: 200.0 mg/kg/injection, schedule: Q04DX002 (ip), vehicle: Klucel (hydroxypropylcellulose) (HPC)): 105 % of control
- T/C (dose: 400.0 mg/kg/injection, schedule: Q04DX002 (ip), vehicle: Klucel (hydroxypropylcellulose) (HPC)): 105 % of control

Compound: CN1CCN=C1c1ccc(NC(=O)c2ccc(C(=O)Nc3ccc(C4=NCCN4C)cc3)c(N)c2)cc1
- T/C (dose: 3.0 mg/kg/injection, schedule: Q01DX Z (ip), vehicle: carboxymethylcellulose (CMC)): 242 % of control
- T/C (dose: 6.0 mg/kg/injection, schedule: Q01DX Z (ip), vehicle: carboxymethylcellulose (CMC)): 159 % of control
- T/C (dose: 6.0 mg/kg/injection, schedule: Q01DX Z (oral), vehicle: water): 98 % of control
- T/C (dose: 12.0 mg/kg/injection, schedule: Q01DX Z (ip), vehicle: carboxymethylcellulose (CMC)): 103 % of control
- T/C (dose: 12.0 mg/kg/injection, schedule: Q01DX Z (oral), vehicle: water): 95 % of control
- T/C (dose: 24.0 mg/kg/injection, schedule: Q01DX Z (oral), vehicle: water): 98 % of control
- T/C (dose: 48.0 mg/kg/injection, schedule: Q01DX Z (oral), vehicle: water): 101 % of control

Compound: CC(C(=O)c1ccc(-c2ccccc2)cc1)C(Cl)c1ccccc1 (stereo not given)
- T/C [4]: 106 % of control
- T/C [5]: 94 % of control
- T/C [6]: 97 % of control

Compound: COC(=O)CCCCCN1C(=O)c2cccc([N+](=O)[O-])c2C1=O
- T/C (dose: 100.0 mg/kg/injection, schedule: Q01DX001 (ip), vehicle: saline with Tween-80): 104 % of control
- T/C (dose: 200.0 mg/kg/injection, schedule: Q01DX001 (ip), vehicle: saline with Tween-80): 97 % of control
- T/C (dose: 400.0 mg/kg/injection, schedule: Q01DX001 (ip), vehicle: saline with Tween-80): 100 % of control

Compound: CN(C)[C@@H]1C(=O)C(C(=O)NCNC(Cc2ccc(N(CCCl)CCCl)cc2)C(=O)O)=C(O)[C@@]2(O)C(=O)C3=C(O)c4c(O)cccc4[C@@](C)(O)[C@H]3C[C@@H]12 (stereo not given in full)
- T/C (dose: 1.3 mg/kg/injection, schedule: Q01DX009 (ip), vehicle: other): 114 % of control
- T/C (dose: 4.69 mg/kg/injection, schedule: Q01DX009 (ip), vehicle: saline): 121 % of control
- T/C (dose: 5.0 mg/kg/injection, schedule: Q01DX001 (ip), vehicle: saline): 96 % of control
- T/C (dose: 6.6 mg/kg/injection, schedule: Q01DX009 (ip), vehicle: other): 152 % of control
- T/C (dose: 9.0 mg/kg/injection, schedule: Q01DX001 (ip), vehicle: saline): 109 % of control
- T/C (dose: 10.0 mg/kg/injection, schedule: Q01DX009 (ip), vehicle: other): 173 % of control
- T/C (dose: 18.0 mg/kg/injection, schedule: Q01DX009 (ip), vehicle: other): 189 % of control
- T/C (dose: 18.95 mg/kg/injection, schedule: Q01DX009 (ip), vehicle: saline): 162 % of control
- T/C (dose: 19.0 mg/kg/injection, schedule: Q01DX001 (ip), vehicle: saline): 102 % of control
- T/C (dose: 30.0 mg/kg/injection, schedule: Q01DX001 (ip), vehicle: other): 156 % of control
- T/C (dose: 37.5 mg/kg/injection, schedule: Q01DX009 (ip), vehicle: saline): 166 % of control
- T/C (dose: 38.0 mg/kg/injection, schedule: Q01DX001 (ip), vehicle: saline): 123 % of control
- T/C (dose: 44.0 mg/kg/injection, schedule: Q01DX001 (ip), vehicle: other): 152 % of control and 164 % of control
- T/C (dose: 67.0 mg/kg/injection, schedule: Q01DX001 (ip), vehicle: other): 173 % of control
- T/C [7]: 122 % of control
- T/C (dose: 75.0 mg/kg/injection, schedule: Q01DX009 (ip), vehicle: saline): 102 % of control
- T/C (dose: 100.0 mg/kg/injection, schedule: Q01DX001 (ip), vehicle: other): 191 % of control

Compound: CCOC(=O)c1cnc(SC)nc1Nc1ccccc1Br
- T/C [1]: 92 % of control
- T/C [2]: 97 % of control
- T/C [3]: 98 % of control

Compound: C=C(Br)CNC(=O)C(C)(C)C
- T/C [8]: 97 % of control
- T/C [9]: 97 % of control
- T/C [10]: 98 % of control

Compound: CCOC(=O)Nc1cc(NC(c2ccccc2)c2ccccc2)c([N+](=O)[O-])c(NC/C(C)=N/NC(N)=O)n1
- T/C [11]: 95 % of control
- T/C [12]: 93 % of control
- T/C (dose: 400.0 mg/kg/injection, schedule: Q01DX001 (ip), vehicle: carboxymethylcellulose (CMC)): 89 % of control

Compound: O=C(Cl)c1ccc(N2C(=O)c3ccccc3C2=O)cc1[N+](=O)[O-]
- T/C [4]: 98 % of control
- T/C [8]: 102 % of control
- T/C [5]: 97 % of control
- T/C [9]: 98 % of control
- T/C [6]: 106 % of control
- T/C [10]: 100 % of control

Compound: O=S1(=O)C=CCC1
- T/C (dose: 50.0 mg/kg/injection, schedule: Q01DX001 (ip), vehicle: carboxymethylcellulose (CMC)): 100 % of control
- T/C [11]: 94 % of control
- T/C (dose: 100.0 mg/kg/injection, schedule: Q01DX009 (ip), vehicle: saline): 96 % of control
- T/C (dose: 100.0 mg/kg/injection, schedule: Q04DX003 (ip), vehicle: saline): 100 % of control
- T/C [12]: 103 % of control
- T/C (dose: 200.0 mg/kg/injection, schedule: Q01DX009 (ip), vehicle: saline): 102 % of control
- T/C (dose: 200.0 mg/kg/injection, schedule: Q04DX003 (ip), vehicle: saline): 94 % of control
- T/C (dose: 400.0 mg/kg/injection, schedule: Q04DX003 (ip), vehicle: saline): 100 % of control

Compound: O=S(=O)(Cl)OO/C=C\OOS(=O)(=O)Cl
- T/C (dose: 100.0 mg/kg/injection, schedule: Q01DX001 (ip), vehicle: saline): 101 % of control
- T/C (dose: 200.0 mg/kg/injection, schedule: Q01DX001 (ip), vehicle: saline): 108 % of control

Compound: O=C(O)c1cc2ccccc2c2cc(C(F)(F)F)ccc12
- T/C [7]: 92 % of control
- T/C (dose: 150.0 mg/kg/injection, schedule: Q01DX001 (ip), vehicle: saline): 97 % of control
